Assay results reported in patent US5861520A, “Glycolipid analogs” (Seikagaku Kogyo Kabushiki Kaisha (Seikagaku Corporation), priority 1994, dated 1999).
“Also recorded” adds a separate entry of the source.

Tests used:
Type in all cases: biochemical
β-galactocerebrosidase [1] = target: T1, β-galactocerebrosidase (Mus musculus, UniProt P54818); assay: β-galactocerebrosidase inhibition with NBD-galactocerebroside (fluorescence-labeled natural substrate), mouse brain microsome; conditions: for inhibition at 10 µM / IC50: NBD-galactocerebroside, mouse brain microsome; for inhibition at 10 µM / inhibition of β-galactocerebrosidase activity (in words): 10 μM
T1 construct: mouse brain microsome as an enzyme source; from tissue; host or cells: mouse brain microsome
T1 sequence (P54818 43-684): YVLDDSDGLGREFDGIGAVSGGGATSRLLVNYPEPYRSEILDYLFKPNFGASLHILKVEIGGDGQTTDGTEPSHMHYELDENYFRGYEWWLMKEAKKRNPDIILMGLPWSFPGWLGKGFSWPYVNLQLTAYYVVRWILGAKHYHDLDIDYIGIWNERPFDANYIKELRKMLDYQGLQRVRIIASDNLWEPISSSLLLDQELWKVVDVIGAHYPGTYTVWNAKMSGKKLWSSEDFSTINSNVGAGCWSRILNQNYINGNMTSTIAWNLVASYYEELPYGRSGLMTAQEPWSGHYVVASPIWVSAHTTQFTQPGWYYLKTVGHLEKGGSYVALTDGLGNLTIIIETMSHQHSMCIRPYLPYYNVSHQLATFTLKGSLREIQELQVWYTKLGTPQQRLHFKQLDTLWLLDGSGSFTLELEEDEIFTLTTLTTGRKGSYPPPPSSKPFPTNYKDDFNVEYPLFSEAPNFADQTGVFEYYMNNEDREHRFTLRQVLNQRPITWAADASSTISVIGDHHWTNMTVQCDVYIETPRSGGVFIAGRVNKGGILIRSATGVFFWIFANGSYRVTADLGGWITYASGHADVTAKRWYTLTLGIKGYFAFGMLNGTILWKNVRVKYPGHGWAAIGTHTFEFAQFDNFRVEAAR
Description: (§1) Glycosidase inhibitory effects of glycolipid analogs (1) The inhibitory effects of each of compounds 1E, 1Z, 2E and 2Z synthesized in Examples 1 to 4 on β-glucocerebrosidase and β-galactocerebrosidase were determined by using fluorescence-labeled natural substrates, i.e., 12-[N-methyl-N-(7-nitro-2-oxa-1,3-diaxol-4-yl)]aminododecanoic acid (NBD)-glucocerebroside and NBD-galactocrebroside. Namely, the β-glucocerebrosidease activity was determined in accordance with the method of Granbowski et al. [Clin. Chim. Acta., […], 123-135 (1982)] with the use of mouse liver microsome as an enzyme source. On the other hand, the β-galactocerebrosidase activity was determined in accordance with the method of Raghavan et al. [Biochim. Biophys. Acta, 877, 1-8 (1986)] with the use of mouse brain microsome as an enzyme source. […] Each substrate was used in a constant and large excess amount over the corresponding enzyme. […] IC50 levels (the concentration necessary for inhibiting 50% of the enzyme activity) of compounds 1E and 1Z were 0.3 μM and 0.1 μM, respectively. […] The inhibition (%) was determined in accordance with the following formula. [formula]
(§2) Under the same conditions as employed above, further, the inhibitory effects of the following compound C-1 [in the formula (a), X=NH, sugar analog=glucose type] being similar to the glycolipid analogs of the present invention and the sugar analogs C-2 to C-4 represented by the following formula [synthesized by the method similar to in the synthesis of compound C-1] were examined and compared.

β-galactocerebrosidase [2] = assay: β-galactocerebrosidase inhibition, 4-methyl-umbelliferyl substrate; conditions: mouse brain microsome, 4-methyl-umbelliferyl glucoside
Description: (§3) (2) The inhibitory effects of each of compounds 1E, 1Z, 2E and 2Z synthesized in Examples 1 to 4, the above-described compound C-1 and the following compounds C-5 and C-6 on β-glucocerebrosidase and β-galactocerebrosidase were determined by the following method. Namely, the same enzyme sources as employed in the above (1) were used, while 4-methyl-umbelliferyl glucoside was used as a substrate. The inhibition (%) and IC50 were determined in accordance with the method of Peter et al. [Clin. Chim. Acta, 60, 391-396 (1975)]. In each case, the substrate was used in a constant and large excess amount over the corresponding enzyme.

β-glucocerebrosidase [3] = target: T2, β-glucocerebrosidase (Mus musculus, UniProt P17439); assay: β-glucocerebrosidase inhibition with NBD-glucocerebroside (fluorescence-labeled natural substrate), mouse liver microsome; conditions: for inhibition of β-glucocerebrosidase activity (in words) / inhibition at 10 µM: 10 μM; for inhibition at 10 µM / IC50: NBD-glucocerebroside, mouse liver microsome; for enhancement of β-glucocerebrosidase inhibition compared with C-1 and C-3 (in words): compared with saturated analogs C-1 and C-3
T2 construct: mouse liver microsome as an enzyme source; from tissue; host or cells: mouse liver microsome
T2 sequence (P17439 20-515): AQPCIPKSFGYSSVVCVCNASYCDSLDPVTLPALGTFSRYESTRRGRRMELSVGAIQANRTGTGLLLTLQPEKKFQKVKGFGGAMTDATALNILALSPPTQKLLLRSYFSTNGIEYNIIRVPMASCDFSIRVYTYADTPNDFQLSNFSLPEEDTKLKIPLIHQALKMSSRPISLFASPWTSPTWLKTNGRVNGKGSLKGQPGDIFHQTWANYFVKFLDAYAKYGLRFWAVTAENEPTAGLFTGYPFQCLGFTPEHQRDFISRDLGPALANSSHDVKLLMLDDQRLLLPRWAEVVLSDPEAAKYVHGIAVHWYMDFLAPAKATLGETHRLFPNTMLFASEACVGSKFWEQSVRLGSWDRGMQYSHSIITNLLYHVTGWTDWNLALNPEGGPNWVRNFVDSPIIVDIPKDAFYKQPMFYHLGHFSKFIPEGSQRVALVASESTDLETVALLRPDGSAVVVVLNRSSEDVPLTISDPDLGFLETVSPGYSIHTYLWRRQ
Description: as §1, §2

β-glucocerebrosidase [4] = target: T2, β-glucocerebrosidase; assay: β-glucocerebrosidase inhibition with 4-methyl-umbelliferyl glucoside as substrate; conditions: mouse liver microsome
Description: as §3

| inhibition at 10 µM (β-galactocerebrosidase [1]) | 40 μM inhibition (%) (β-galactocerebrosidase [2]) | inhibition at 10 µM (β-glucocerebrosidase [3]) | IC50 (β-glucocerebrosidase [3]) | enhancement of β-glucocerebrosidase inhibition compared with C-1 and C-3 (in words) (β-glucocerebrosidase [3]) | inhibition at 40 µM (β-glucocerebrosidase [4]) | IC50 (β-glucocerebrosidase [4]) | IC50 (β-galactocerebrosidase [1]) | IC50 (β-galactocerebrosidase [2]) | Compound | inhibition of β-glucocerebrosidase activity (in words) (β-glucocerebrosidase [3]) | inhibition of β-galactocerebrosidase activity (in words) (β-galactocerebrosidase [1]) |
| --- | --- | --- | --- | --- | --- | --- | --- | --- | --- | --- | --- |
| 0% | 1% | 97.7% | 100 nM | extremely enhanced | 99% | 440 nM |  |  | CCCCCCCCCCCCC/C=C\[C@@H](O)[C@H](CN[C@@H]1C=C(CO)[C@@H](O)[C@H](O)[C@H]1O)NC(=O)CCCCCCCCCCCCCCC [Compound 1Z, (2S,3R,4Z)-1-[(5a-carba-β-D-xylo-hex-5-enopyranosyl)amino]-2-(hexadecanoylamino)-4-octadecen-3-ol] | strongly and specifically inhibited the β-glucocerebrosidase activity alone; also recorded: almost completely inhibited the β-glucocerebrosidase activity |  |
|  | 31% |  |  |  | 0% |  |  |  | CCCCCCCCCCCCC/C=C/[C@@H](O)[C@H](CO[C@@H]1C[C@H](CO)[C@@H](O)[C@H](O)[C@H]1O)NC(=O)CCCCCCCCCCCCCCC [Compound C-5, reference compound] |  |  |
|  | 0% |  |  |  | 0% |  |  |  | CCCCCCCCCCCCC/C=C/[C@@H](O)[C@H](CS[C@@H]1C[C@H](CO)[C@@H](O)[C@H](O)[C@H]1O)NC(=O)CCCCCCCCCCCCCCC [Compound C-6, reference compound] |  |  |
| 2.3% |  | 64% |  |  |  |  |  |  | CCCCCCCCCCCCC/C=C\[C@@H](O)[C@H](CN[C@@H]1C[C@H](CO)[C@@H](O)[C@H](O)[C@H]1O)NC(=O)CCCCCCCCCCCCCCC [Compound C-3, reference compound] |  |  |
| 0% | 7% | 37.3% |  |  | 56% |  |  |  | CCCCCCCCCCCCC/C=C/[C@@H](O)[C@H](CN[C@@H]1C[C@H](CO)[C@@H](O)[C@H](O)[C@H]1O)NC(=O)CCCCCCCCCCCCCCC [Compound C-1, reference compound] |  |  |
| 15.4% |  | 0% |  |  |  |  |  |  | CCCCCCCCCCCCC/C=C\[C@@H](O)[C@H](CN[C@@H]1C[C@H](CO)[C@H](O)[C@H](O)[C@H]1O)NC(=O)CCCCCCCCCCCCCCC [Compound C-4, reference compound] |  | slightly inhibited the β-galactocerebrosidase activity |
| 87.2% | 92% | 0% |  |  | 43% |  | 2300 nM | 1850 nM | CCCCCCCCCCCCC/C=C\[C@@H](O)[C@H](CN[C@@H]1C=C(CO)[C@H](O)[C@H](O)[C@H]1O)NC(=O)CCCCCCCCCCCCCCC [Compound 2Z, (2S,3R,4Z)-1-[(5a-carba-α-L-arabino-hex-5-enopyranosyl)amino]-2-(hexadecanoylamino)-4-octadecen-3-ol] |  | strongly and specifically inhibited the β-galactocerebrosidase activity alone |
| 92.6% | 95% | 0% |  |  | 31% |  | 1600 nM | 1250 nM | CCCCCCCCCCCCC/C=C/[C@@H](O)[C@H](CN[C@@H]1C=C(CO)[C@H](O)[C@H](O)[C@H]1O)NC(=O)CCCCCCCCCCCCCCC [Compound 2E, (2S,3R,4E)-1-[(5a-carba-α-L-arabino-hex-5-enopyranosyl)amino]-2-(hexadecanoylamino)-4-octadecen-3-ol] |  | strongly and specifically inhibited the β-galactocerebrosidase activity alone |
| 0% | 1% | 95.2% | 300 nM | extremely enhanced | 97% | 580 nM |  |  | CCCCCCCCCCCCC/C=C/[C@@H](O)[C@H](CN[C@@H]1C=C(CO)[C@@H](O)[C@H](O)[C@H]1O)NC(=O)CCCCCCCCCCCCCCC [Compound 1E, (2S,3R,4E)-1-[(5a-carba-β-D-xylo-hex-5-enopyranosyl)amino]-2-(hexadecanoylamino)-4-octadecen-3-ol] | strongly and specifically inhibited the β-glucocerebrosidase activity alone; also recorded: almost completely inhibited the β-glucocerebrosidase activity |  |
| 12.9% |  | 0% |  |  |  |  |  |  | CCCCCCCCCCCCC/C=C/[C@@H](O)[C@H](CN[C@@H]1C[C@H](CO)[C@H](O)[C@H](O)[C@H]1O)NC(=O)CCCCCCCCCCCCCCC [Compound C-2, reference compound] |  | slightly inhibited the β-galactocerebrosidase activity |
